Common to all, as to format: biochemical
One experiment concerns the target T1, FLT3 (Homo sapiens, UniProt P36888).
T1 sequence (P36888 27-993): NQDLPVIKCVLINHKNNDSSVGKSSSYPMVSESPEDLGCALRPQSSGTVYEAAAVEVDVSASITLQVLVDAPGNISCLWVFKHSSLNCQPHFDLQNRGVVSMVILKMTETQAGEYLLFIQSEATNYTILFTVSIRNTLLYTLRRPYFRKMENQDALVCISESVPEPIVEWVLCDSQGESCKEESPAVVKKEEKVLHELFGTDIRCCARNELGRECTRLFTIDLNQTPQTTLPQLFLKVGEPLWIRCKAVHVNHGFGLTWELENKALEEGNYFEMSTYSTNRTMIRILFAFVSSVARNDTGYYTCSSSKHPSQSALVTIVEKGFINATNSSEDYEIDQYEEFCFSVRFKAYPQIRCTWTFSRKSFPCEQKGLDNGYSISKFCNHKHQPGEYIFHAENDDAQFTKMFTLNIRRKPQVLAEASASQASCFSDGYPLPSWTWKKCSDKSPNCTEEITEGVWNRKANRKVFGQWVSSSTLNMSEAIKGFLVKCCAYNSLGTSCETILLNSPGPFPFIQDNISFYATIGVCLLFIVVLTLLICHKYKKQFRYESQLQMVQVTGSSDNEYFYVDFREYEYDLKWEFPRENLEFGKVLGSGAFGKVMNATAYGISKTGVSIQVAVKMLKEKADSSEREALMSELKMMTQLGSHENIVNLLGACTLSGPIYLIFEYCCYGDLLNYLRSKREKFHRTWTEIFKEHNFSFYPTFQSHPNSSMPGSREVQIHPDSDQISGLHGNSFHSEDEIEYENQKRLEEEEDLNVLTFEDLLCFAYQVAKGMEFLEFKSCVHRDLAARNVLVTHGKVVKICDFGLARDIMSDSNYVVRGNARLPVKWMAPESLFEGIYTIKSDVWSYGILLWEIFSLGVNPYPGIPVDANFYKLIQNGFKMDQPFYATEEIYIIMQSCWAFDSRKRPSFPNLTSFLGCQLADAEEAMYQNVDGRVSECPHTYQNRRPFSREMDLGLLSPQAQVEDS
The experiment is described as follows: FLT3 kinase assay. As to conditions: ATP 200 μM; FLT3 4.5 nM; Caliper LabChip 3000. The protocol: The assays were performed in U-bottom 384-well plates. The final assay volume was 30 μl prepared from 15 μl additions of enzyme and substrates (fluoresceinated FLT3 substrate peptide and ATP) and test compounds in assay buffer (100 mM HEPES pH 7.4, 10 mM MgCl2, 0.015% Brij35 and 4 mM DTT). The reaction was initiated by the combination of FLT3 with substrates and test compounds. The reaction was incubated at room temperature for 60 min. and terminated by adding 30 μl of 35 mM EDTA to each sample. The reaction mixture was analyzed on the Caliper LabChip 3000 by electrophoretic separation of the fluorescent substrate and phosphorylated product. Inhibition data were calculated by comparison to no enzyme control reactions for 100% inhibition and vehicle-only reactions for 0% inhibition. The final concentration of reagents in the assays is ATP, 200 μM, FL-peptide, 1.5 μM; FLT3, 4.5 nM and DMSO, 1.6%. Dose response curves were generated to determine the concentration required inhibiting 50% of kinase activity (IC50). Compounds were dissolved at 10 mM in dimethylsulfoxide (DMSO) and evaluated at eleven concentrations, each in duplicate. IC50 values were derived by non-linear regression analysis.

The target of the next experiment is T2, GSK3-β (Homo sapiens, UniProt P49841).
T2 construct: His
T2 sequence (P49841 whole entry): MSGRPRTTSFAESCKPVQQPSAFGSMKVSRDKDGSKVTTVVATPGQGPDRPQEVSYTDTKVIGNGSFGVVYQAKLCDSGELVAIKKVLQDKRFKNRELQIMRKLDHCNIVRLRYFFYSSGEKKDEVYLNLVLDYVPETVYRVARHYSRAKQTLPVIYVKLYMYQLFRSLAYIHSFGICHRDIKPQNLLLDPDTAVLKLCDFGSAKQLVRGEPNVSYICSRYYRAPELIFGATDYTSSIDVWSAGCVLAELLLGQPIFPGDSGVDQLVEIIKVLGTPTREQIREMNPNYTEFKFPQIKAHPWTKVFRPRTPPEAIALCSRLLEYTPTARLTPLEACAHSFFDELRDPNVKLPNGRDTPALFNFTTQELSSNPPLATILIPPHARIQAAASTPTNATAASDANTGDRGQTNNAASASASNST
The experiment is described as follows: GSK3-β kinase assay. The note with it: ATP 30 μM; His-GSK3B 2.4 nM; Caliper LabChip 3000; read-out: GSK-3β IC50. The protocol:
The assays were performed in U-bottom 384-well plates. The final assay volume was 30 μl prepared from 15 μl additions of enzyme and substrates (fluoresceinated peptide FL-GSK substrate and ATP) and test compounds in assay buffer (100 mM HEPES pH 7.2, 10 mM MgCl2, 0.015% Brij35, 25 mM β-glycerolphosphate and 4 mM DTT). The reaction was initiated by the combination of GSK3-β with substrates and test compounds. The reaction was incubated at room temperature for 60 min. and terminated by adding 30 μl of 35 mM EDTA to each sample. The reaction mixture was analyzed on the Caliper LabChip 3000 (Caliper, Hopkinton, Mass.) by electrophoretic separation of the fluorescent substrate and phosphorylated product Inhibition data were calculated by comparison to no enzyme control reactions for 100% inhibition and vehicle-only reactions for 0% inhibition. The final concentration of reagents in the assays is ATP, 30 μM; FL-GSK substrate, 1.5 μM; His-GSK3B, 2.4 nM; and DMSO, 1.6%.

For a further experiment, the target named is GST-Met (Homo sapiens, UniProt P08581). The experiment is described as follows: Met Kinase Assay. As to conditions: 1 μM ATP; 33P γ-ATP, poly(Glu/Tyr); 1 h at 30° C. As to the method:
Kinase reactions consisted of 0.75 ng of baculovirus expressed GST-Met, 3 ug poly(Glu/Tyr) (Sigma), 0.12 μCi 33P γ-ATP, 1 μM ATP in 30 μl kinase buffer (20 mm TRIS-C1, 5 mM MnCl2, 0.1 mg/ml BSA, 0.5 mM DTT). Reactions were incubated for 1 h at 30° C. and stopped by the addition of cold trichloroacetic acid (TCA) to a final concentration 8%. TCA precipitates were collected onto GF/C unifilter plates using a Filtermate universal harvester and the filters were quantitated using a TopCount 96-well liquid scintillation counter. Dose response curves were generated to determine the concentration required to inhibit 50% of kinase activity (IC50). Compounds were dissolved at 10 mM in dimethylsulfoxide (DMSO) and evaluated at seven concentrations, each in triplicate.

SMILES strings stand for the structures. pIC50: −log10 of the molar value.

Chain of GST-Met (P08581 25-1390): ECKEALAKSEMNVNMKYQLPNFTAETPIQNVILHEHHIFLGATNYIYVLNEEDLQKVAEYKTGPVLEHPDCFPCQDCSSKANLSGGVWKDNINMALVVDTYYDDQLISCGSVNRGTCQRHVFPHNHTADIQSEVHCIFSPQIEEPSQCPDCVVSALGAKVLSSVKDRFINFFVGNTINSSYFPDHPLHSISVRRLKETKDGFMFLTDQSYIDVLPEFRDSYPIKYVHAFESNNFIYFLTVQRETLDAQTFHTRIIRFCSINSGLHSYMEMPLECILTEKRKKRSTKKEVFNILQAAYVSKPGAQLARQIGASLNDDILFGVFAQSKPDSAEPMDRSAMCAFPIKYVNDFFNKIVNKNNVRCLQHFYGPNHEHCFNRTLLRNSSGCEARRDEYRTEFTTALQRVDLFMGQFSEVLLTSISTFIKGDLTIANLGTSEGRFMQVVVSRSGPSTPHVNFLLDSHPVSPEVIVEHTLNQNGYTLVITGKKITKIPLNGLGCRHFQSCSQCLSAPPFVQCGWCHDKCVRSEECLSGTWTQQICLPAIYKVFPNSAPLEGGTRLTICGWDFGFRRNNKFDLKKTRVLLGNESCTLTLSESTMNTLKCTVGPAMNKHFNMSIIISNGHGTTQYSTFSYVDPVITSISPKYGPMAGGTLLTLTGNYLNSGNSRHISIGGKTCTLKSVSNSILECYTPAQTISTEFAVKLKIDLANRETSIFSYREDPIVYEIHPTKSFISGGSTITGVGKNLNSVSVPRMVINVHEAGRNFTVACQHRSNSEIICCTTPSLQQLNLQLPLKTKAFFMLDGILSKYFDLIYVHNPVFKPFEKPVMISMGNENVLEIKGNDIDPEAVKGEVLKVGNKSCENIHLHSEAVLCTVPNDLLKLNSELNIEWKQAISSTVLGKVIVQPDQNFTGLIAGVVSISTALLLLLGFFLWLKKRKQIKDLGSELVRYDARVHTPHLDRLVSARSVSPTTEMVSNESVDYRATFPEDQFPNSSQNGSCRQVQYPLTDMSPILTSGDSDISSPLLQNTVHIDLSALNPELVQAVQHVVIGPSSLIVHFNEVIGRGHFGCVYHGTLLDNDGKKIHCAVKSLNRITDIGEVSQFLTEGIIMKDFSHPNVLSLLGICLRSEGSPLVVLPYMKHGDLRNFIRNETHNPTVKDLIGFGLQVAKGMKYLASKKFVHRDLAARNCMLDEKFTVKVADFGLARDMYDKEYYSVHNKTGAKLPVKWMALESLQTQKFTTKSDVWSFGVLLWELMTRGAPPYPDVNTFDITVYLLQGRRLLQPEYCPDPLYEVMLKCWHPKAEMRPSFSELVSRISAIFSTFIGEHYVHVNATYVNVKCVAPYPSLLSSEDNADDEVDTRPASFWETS

What is called pIC50 is the IC50 on a negative log10 scale, so that one unit is a factor of ten. For the compound `O=C(C1CCNCC1)N1CCC[C@H]1c1nc(Nc2cc(C3CC3)[nH]n2)c2cccn2n1` [Example 6, (S)-(2-(4-(5-Cyclopropyl-1H-pyrazol-3-ylamino)pyrrolo[1,2-f][1,2,4]triazin-2-yl)pyrrolidin-1-yl)(piperidin-4-yl)methanone], the pIC50 is 7.01 on FLT3, 7.04 at GSK3-β and 4.98 on GST-Met.

For the compound `O=C(c1cc[nH]n1)N1CCC[C@H]1c1nc(Nc2cc(C3CC3)[nH]n2)c2cccn2n1` [Example 7, (S)-(2-(4-(5-Cyclopropyl-1H-pyrazol-3-ylamino)pyrrolo[1,2-f][1,2,4]triazin-2-yl)pyrrolidin-1-yl)(1H-pyrazol-3-yl)methanone], the figures for the pIC50 at FLT3, on GSK3-β and against GST-Met were 8.40, 7.29 and 5.93, respectively.

With `O=C(c1cnccn1)N1CCC[C@@H]1c1nc(Nc2cc(C3CC3)[nH]n2)c2cccn2n1` [Example 12, (R)-(2-(4-(5-Cyclopropyl-1H-pyrazol-3-ylamino)pyrrolo[1,2-f][1,2,4]triazin-2-yl)pyrrolidin-1-yl)(pyrazin-2-yl)methanone], the negative-log IC50 (pIC50) was 8.22 on FLT3, 8.52 at GSK3-β and 4.97 against GST-Met.

Regarding `O=C(c1nccs1)N1CCC[C@@H]1c1nc(Nc2cc(C3CC3)[nH]n2)c2cccn2n1` [Example 15, (R)-(2-(4-(5-Cyclopropyl-1H-pyrazol-3-ylamino)pyrrolo[1,2-f][1,2,4]triazin-2-yl)pyrrolidin-1-yl)(thiazol-2-yl)methanone], the pIC50 is 7.62 at FLT3, 7.96 on GSK3-β and 5.20 against GST-Met.

Values taken from patent US8198438B2, “Pyrrolotriazine kinase inhibitors” (Bristol-Myers Squibb Company, priority 2007, dated 2012).
